Results as given in patent EP4345092A1, “NITROBENZAMIDE COMPOUNDS, METHODS AND USES THEREOF” (Faculdade de Farmácia da Universidade de Lisboa, priority 2022, dated 2024).
≈ marks a conversion by molar mass, not a printed value. Where “and” joins values, the source holds several entries; their conditions need not be identical. Identical values can stand only once. Like-named read-outs stand apart in the source and are kept apart here.

Tests used:
[1] = test system: Mycobacterium tuberculosis H37Rv (ATCC 27294); assay: Minimum Inhibitory Concentration (MIC), broth microdilution in 96-well plates; format: cell-based
[2] = test system: Mycobacterium tuberculosis H37Rv (ATCC 27294); assay: microbe, parasite or virus in culture; format: cell-based; details: 504 h

| Compound | MIC [1] | MBC [2] | MIC ([1]; M. tuberculosis H37Rv, 10th day of incubation, concentration with no visible turbidity, read-out: MIC) | MIC ([1]; M. tuberculosis H37Rv, 10th day of incubation, same MIC expressed in nM, read-out: MIC) |
| --- | --- | --- | --- | --- |
| O=C(NCCOc1ccc(-c2ccccc2)cc1)c1cc([N+](=O)[O-])cc([N+](=O)[O-])c1 [Compound 1] | 0.063 µg/mL and 0.155 µM | – | – | – |
| O=C(NCCOc1ccc(Br)cc1)c1cc([N+](=O)[O-])cc([N+](=O)[O-])c1 [Compound 5] | 0.063 µg/mL and 0.154 µM | – | – | – |
| O=C(NCCOc1ccc(C(F)(F)F)cc1)c1cc([N+](=O)[O-])cc([N+](=O)[O-])c1 [Compound 6] | 0.125 µg/mL and 0.313 µM | – | – | – |
| O=C(NCCOc1ccc(Cc2ccccc2)cc1)c1cc([N+](=O)[O-])cc([N+](=O)[O-])c1 [Compound 7] | 0.063 µg/mL and 0.149 µM | – | – | – |
| O=C(NCCCOc1ccc(-c2ccccc2)cc1)c1cc([N+](=O)[O-])cc([N+](=O)[O-])c1 [Compound 8, N-(3-(4-phenylphenoxy)propyl)-3,5-dinitrobenzamide] | 0.063 µg/mL and 0.149 µM | 0.125 µg/mL (≈ 0.297 µM) | – | – |
| COc1ccc(OCCCNC(=O)c2cc([N+](=O)[O-])cc([N+](=O)[O-])c2)cc1 [Compound 9, N-(3-(4-methoxyphenoxy)propyl)-3,5-dinitrobenzamide] | 0.063 µg/mL and 0.168 µM | 0.125 µg/mL (≈ 0.333 µM) | – | – |
| O=C(NCCCOc1ccc(OC(F)(F)F)cc1)c1cc([N+](=O)[O-])cc([N+](=O)[O-])c1 [Compound 10, N-(3-(4-trifluoromethoxyphenoxy)propyl)-3,5-dinitrobenzamide] | 0.063 µg/mL and 0.147 µM | 0.25 µg/mL (≈ 0.582 µM) | – | – |
| O=C(NCCCOc1ccc(F)cc1)c1cc([N+](=O)[O-])cc([N+](=O)[O-])c1 [Compound 11, N-(3-(4-fluorophenoxy)propyl)-3,5-dinitrobenzamide] | 0.063 µg/mL and 0.173 µM | 0.125 µg/mL (≈ 0.344 µM) | – | – |
| O=C(NCCCOc1ccc(C(F)(F)F)cc1)c1cc([N+](=O)[O-])cc([N+](=O)[O-])c1 [Compound 12, N-(3-(4-trifluoromethylphenoxy)propyl)-3,5-dinitrobenzamide] | 0.125 µg/mL and 0.302 µM | – | – | – |
| O=C(NCCCOc1ccccc1)c1cc([N+](=O)[O-])cc([N+](=O)[O-])c1 [Compound 13, N-(3-(phenoxy)propyl)-3,5-dinitrobenzamide] | 0.063 µg/mL and 0.182 µM | 0.125 µg/mL (≈ 0.362 µM) | – | – |
| O=C(NCCCCCOc1ccc(-c2ccccc2)cc1)c1cc([N+](=O)[O-])cc([N+](=O)[O-])c1 [Compound 14, N-(5-(4-phenylphenoxy)pentyl)-3,5-dinitrobenzamide] | 0.063 µg/mL and 0.14 µM | 0.125 µg/mL (≈ 0.278 µM) | – | – |
| COc1ccc(OCCCCCNC(=O)c2cc([N+](=O)[O-])cc([N+](=O)[O-])c2)cc1 [Compound 15, N-(5-(4-methoxyphenoxy)pentyl)-3,5-dinitrobenzamide] | 0.063 µg/mL and 0.156 µM | 0.125 µg/mL (≈ 0.31 µM) | – | – |
| O=C(NCCCCCOc1ccc(OC(F)(F)F)cc1)c1cc([N+](=O)[O-])cc([N+](=O)[O-])c1 [Compound 16, N-(5-(4-trifluoromethoxyphenoxy)pentyl)-3,5-dinitrobenzamide] | 0.031 µg/mL and 0.0678 µM | 0.063 µg/mL (≈ 0.138 µM) | – | – |
| O=C(NCCCCCOc1ccc([N+](=O)[O-])cc1)c1cc([N+](=O)[O-])cc([N+](=O)[O-])c1 [Compound 17, N-(5-(4-nitrophenoxy)pentyl)-3,5-dinitrobenzamide] | 0.031 µg/mL and 0.0741 µM | 0.125 µg/mL (≈ 0.299 µM) | – | – |
| O=C(NCCCCCOc1ccc(F)cc1)c1cc([N+](=O)[O-])cc([N+](=O)[O-])c1 [Compound 18, N-(5-(4-fluorophenoxy)pentyl)-3,5-dinitrobenzamide] | 0.031 µg/mL and 0.0792 µM | 0.063 µg/mL (≈ 0.161 µM) | – | – |
| O=C(NCCCCCOc1ccc(Cl)cc1)c1cc([N+](=O)[O-])cc([N+](=O)[O-])c1 [Compound 19, N-(5-(4-chlorophenoxy)pentyl)-3,5-dinitrobenzamide] | 0.016 µg/mL and 0.0392 µM | 0.063 µg/mL (≈ 0.154 µM) | – | – |
| O=C(NCCCCCOc1ccc(C(F)(F)F)cc1)c1cc([N+](=O)[O-])cc([N+](=O)[O-])c1 [Compound 20, N-(5-(4-trifluoromethylphenoxy)pentyl)-3,5-dinitrobenzamide] | 0.031 µg/mL and 0.0702 µM | 0.063 µg/mL (≈ 0.143 µM) | – | – |
| O=C(NCCCCCOc1ccc(Cc2ccccc2)cc1)c1cc([N+](=O)[O-])cc([N+](=O)[O-])c1 [Compound 21, N-(5-(4-benzylphenoxy)pentyl)-3,5-dinitrobenzamide] | 0.063 µg/mL and 0.136 µM | 0.25 µg/mL (≈ 0.539 µM) | – | – |
| O=C(NCCCCCOc1ccc(Br)cc1)c1cc([N+](=O)[O-])cc([N+](=O)[O-])c1 [Compound 22, N-(5-(4-bromophenoxy)pentyl)-3,5-dinitrobenzamide] | 0.031 µg/mL and 0.0685 µM | 0.063 µg/mL (≈ 0.139 µM) | – | – |
| O=C(NCCCCCOc1ccccc1)c1cc([N+](=O)[O-])cc([N+](=O)[O-])c1 [Compound 23, N-(5-(phenoxy)pentyl)-3,5-dinitrobenzamide] | 0.031 µg/mL and 0.083 µM | 0.063 µg/mL (≈ 0.169 µM) | – | – |

| Compound | MIC [1] | MBC [2] | MIC ([1]; M. tuberculosis H37Rv, 10th day of incubation, concentration with no visible turbidity, read-out: MIC) | MIC ([1]; M. tuberculosis H37Rv, 10th day of incubation, same MIC expressed in nM, read-out: MIC) |
| --- | --- | --- | --- | --- |
| COc1ccc(OCCCCCCCCCNC(=O)c2cc([N+](=O)[O-])cc([N+](=O)[O-])c2)cc1 [Compound 24, N-(9-(4-methoxyphenoxy)nonyl)-3,5-dinitrobenzamide] | 0.016 µg/mL and 0.0348 µM | 0.031 µg/mL (≈ 0.0675 µM) | – | – |
| COc1ccc(OCCCCCCCCCCCNC(=O)c2cc([N+](=O)[O-])cc([N+](=O)[O-])c2)cc1 [Compound 26, N-(11-(4-methoxyphenoxy)undecyl)-3,5-dinitrobenzamide] | 0.063 µg/mL and 0.129 µM | 0.125 µg/mL (≈ 0.256 µM) | – | – |
| C[N+]1(C)CCN(C(=O)c2cc([N+](=O)[O-])cc([N+](=O)[O-])c2)CC1 [Compound 28, 4-(3,5-dinitrobenzoyl)-1,1-dimethylpiperazin-1-ium] | > 16 µg/mL | > 16 µg/mL | – | – |
| O=C(c1cc([N+](=O)[O-])cc([N+](=O)[O-])c1)N1CCN(Cc2ccccc2)CC1 [Compound 29, (3,5-dinitrophenyl)-4-benzylpiperazin-1-yl-methanone] | 2 µg/mL and 5.4 µM | 4 µg/mL (≈ 10.8 µM) | – | – |
| O=C(c1cc([N+](=O)[O-])cc([N+](=O)[O-])c1)N1CCC(Cc2ccccc2)CC1 [Compound 31, (3,5-dinitrophenyl)-4-benzylpiperidin-1-yl-methanone] | 0.5 µg/mL and 1.35 µM | 2 µg/mL (≈ 5.41 µM) | – | – |
| COc1ccc(OC2CCN(C(=O)c3cc([N+](=O)[O-])cc([N+](=O)[O-])c3)CC2)cc1 [Compound 32, (3,5-dinitrophenyl)(4-(4-methoxyphenoxy)piperidin-1-yl)methanone] | 2 µg/mL and 4.98 µM | – | – | – |
| O=C(c1cc([N+](=O)[O-])cc([N+](=O)[O-])c1)N1CCC(O)CC1 [Compound 33, (3,5-dinitrophenyl)-4-hydroxypiperidin-1-yl-methanone] | > 16 µg/mL | 16 µg/mL (≈ 54.2 µM) | – | – |
| O=C(c1cc([N+](=O)[O-])cc([N+](=O)[O-])c1)N1CCCCC1 [Compound 34, (3,5-dinitrophenyl)-piperidin-1-yl-methanone] | > 16 µg/mL | 16 µg/mL (≈ 57.3 µM) | – | – |
| O=C(c1cc([N+](=O)[O-])cc([N+](=O)[O-])c1)N1CCOCC1 [Compound 35, (3,5-dinitrophenyl)(morpholino)methanone] | > 16 µg/mL | > 16 µg/mL | – | – |
| CCCCCCCCCOCCCCCCCCCNC(=O)c1cc([N+](=O)[O-])cc([N+](=O)[O-])c1 [Compound 36, N-(9-(nonyloxy)nonyl)-3,5-dinitrobenzamide] | 0.063 µg/mL and 0.127 µM | – | – | – |
| O=C(NCCCCCCCCCO)c1cc([N+](=O)[O-])cc([N+](=O)[O-])c1 [Compound 37, N-(9-hydroxynonyl)-3,5-dinitrobenzamide] | 0.25 µg/mL and 0.707 µM | – | – | – |
| O=C(NCCCCCO)c1cc([N+](=O)[O-])cc([N+](=O)[O-])c1 [Compound 38, N-(5-hydroxypentyl)-3,5-dinitrobenzamide] | 2 µg/mL and 6.73 µM | – | – | – |
| O=C(NCCCO)c1cc([N+](=O)[O-])cc([N+](=O)[O-])c1 [Compound 39, N-(3-hydroxypropyl)-3,5-dinitrobenzamide] | 4 µg/mL and 14.9 µM | – | – | – |
| O=C(NCCO)c1cc([N+](=O)[O-])cc([N+](=O)[O-])c1 [Compound 40, N-(2-hydroxyethyl)-3,5-dinitrobenzamide] | 16 µg/mL and 62.7 µM | – | – | – |
| O=C(NCCCCCCCCCCCO)c1cc([N+](=O)[O-])cc([N+](=O)[O-])c1 [Compound 41, N-(11-hydroxyundecyl)-3,5-dinitrobenzamide] | 0.125 µg/mL and 0.328 µM | 0.25 µg/mL (≈ 0.655 µM) | – | – |
| O=C(NCCOc1ccccc1)c1cc([N+](=O)[O-])cc(C(F)(F)F)c1 [Compound 42] | – | – | 0.25 µg/mL | 671 nM |
| O=C(NCCCCCN1CCCCC1)c1cc([N+](=O)[O-])cc([N+](=O)[O-])c1 [Compound 44] | 16 µg/mL and 43.9 µM | > 16 µg/mL | – | – |
| O=[N+]([O-])c1cc(C2=NCCO2)cc([N+](=O)[O-])c1 [Compound 47, 2-(3,5-dinitrophenyl)-4,5-dihydrooxazole] | 2 µg/mL and 8.43 µM | 4 µg/mL (≈ 16.9 µM) | – | – |
| O=[N+]([O-])c1cc(C2=NCCCO2)cc([N+](=O)[O-])c1 [Compound 48, 2-(3,5-dinitrophenyl)-5,6-dihydro-4H-1,3-oxazine] | 16 µg/mL and 63.7 µM | > 16 µg/mL | – | – |
